In paper PMC6589951 (Therapeutic Advances in Medical Oncology, 2019):
“Also recorded” adds a separate entry of the source.

Legend:
[1] = test system: patients with advanced solid tumors; assay: phase Ib dose escalation 3+3: DLT, MTD, RP2D; format: in vivo, human
CD14dim/CD16+ monocytes = assay: blood CD14dim/CD16+ monocyte levels; format: in vivo, human; conditions: doses as low as 800 mg daily
mammary carcinoma = conditions: mouse model of mammary carcinoma, cited from earlier work
[2] = test system: patients with advanced solid tumors; assay: exposure, dosing compliance and actions taken with study drug; format: in vivo, human
PVNS/TGCT = conditions: 1000 mg daily; cited from earlier work
osteoclast precursors = conditions: RANK-L and CSF-1 dependent manner; ref Investigator's Brochure, 14; cited from earlier work
[3] = pexidartinib plasma pharmacokinetics, cycle 1 day 15; format: in vivo, human; conditions: day 15, steady state
CSF-1R = conditions: read-out: IC50 CSF-1R; ref Investigator's Brochure, 14; cited from earlier work

SMILES	recommended phase II dose (RP2D) ([1]; pexidartinib in combination with weekly paclitaxel 80 mg/m^2) [mg/day]	maximum tolerated dose ([1]; pexidartinib up to 1600 mg/day with weekly paclitaxel)	reduction of CD14dim/CD16+ monocytes in the peripheral blood (CD14dim/CD16+ monocytes)	survival of study animals (mammary carcinoma; following chemotherapy)	tumor growth (mammary carcinoma; following chemotherapy)	TAM recruitment following chemotherapy (mammary carcinoma)	dose reductions as an immediate action following pexidartinib-related AE ([2]; in vivo) [patients]	patients missing doses of pexidartinib due to AEs of any cause ([2]; in vivo)	patients with dose modifications of pexidartinib ([2]; in vivo) [%]	patients with pexidartinib dose reductions ([2]; in vivo)	Median PFS (PVNS/TGCT)	time in which PRs occurred (PVNS/TGCT) [months]	differentiation of osteoclast precursors (osteoclast precursors)	dose at which pexidartinib plasma concentration and exposure reached saturation [3] [mg]	IC50 (CSF-1R) [nM]	patients with paclitaxel dose reductions ([2]; Eight patients) [%]	omitted paclitaxel doses with AEs as reason ([2]; in vivo) [%]	patients with paclitaxel temporarily withheld ([2]; in vivo) [%]
FC(F)(F)c1ccc(CNc2ccc(Cc3c[nH]c4ncc(Cl)cc34)cn2)cn1 [pexidartinib]	[…]	no maximum tolerated dose was achieved; also recorded: No maximum tolerated dose was determined; also recorded: No maximum tolerated dose was reached	near complete reduction	improved survival	slower tumor growth	abrogate TAM recruitment	[…]	[…]	[…]	[…]	not reached	[…]	inhibit differentiation	[…]	[…]			
CC(=O)O[C@H]1C(=O)[C@@]2(C)[C@H]([C@H](OC(=O)c3ccccc3)[C@]3(O)C[C@H](OC(=O)[C@H](O)[C@@H](NC(=O)c4ccccc4)c4ccccc4)C(C)=C1C3(C)C)[C@]1(OC(C)=O)CO[C@@H]1C[C@@H]2O [paclitaxel, reference compound]																15	54	39
